# Experimental data reported in EP0551200A1, “Protein phosphatase inhibitors for use in therapy” (priority 1992, dated 1993).
# Assays:
# [1] = tested on: c-jun; experiment: Northern blot analysis of c-jun gene expression in human fibroblasts; assay type: cell-based; settings: OA 500 nM
# Description: (§1) Quiescent human fibroblasts were incubated with TNF (500 units/ml) (a) or OA (500 nM) (b) for 0, 30, 60 min after which total cellular RNA was extracted. Blots of RNA from these cells were hybridized to radiolabeled (10⁶ cpm/ml) Egr-1 cDNA probe. c, the blot in b was stripped and reprobed with c-jun cDNA. Note: Egr-1 mRNA probe was not completely stripped from the blot. The autoradiograph of the blot is presented. d, regularly maintained cells were incubated wither with no additions (control, 0 time) or with OA for 1, 3, 5, 7 h and Northern analysis was carried out with an IL-6 cDNA probe (ATCC, Rockville, MD, US).
# (§2) Preparation of RNA and Northern Analysis - Human fibroblasts (4 x 10⁶) were seeded in 175cm² tissue culture flasks and incubated at 37°C for 6 days in regular medium. The cells were fed with regular medium on day 3. On day 6 the medium was replaced by minimal essential medium containing 0.25% fetal calf serum and incubated for another 48 h to maintain the cells in a quiescent state. Quiescent or regularly maintained cells were treated with a specific agonist for the times indicated (see Fig. 7). The cells were harvested and total cytoplasmic RNA isolated by a one-step guanidinium thiocyanate/phenol/chloroform method. […] The blots were autoradiographed and quantitated by the Visage 2000 Image system (BioImage Products, Ann Arbor, MI, US).
# [2] = tested on: IL-6; experiment: Northern blot analysis of IL-6 gene expression in human fibroblasts; assay type: cell-based; settings: regularly maintained cells
# Description: as §1, §2
# [3] = tested on: WISH cells; experiment: Early protein phosphorylation changes in WISH cells; assay type: cell-based, human; settings: data not shown
# Description: Cell Cultures and Reagents - Human diploid fibroblasts, FS-4, 2343 gifts from Dr. J. Vilcek (New York University). They were grown in tissue culture flasks and maintained with minimal essential medium (MEM) supplemented with 10% fetal bovine serum (Hyclone, Logan, UT, US) herein referred to as regular medium. Human WISH cells were purchased from the American Type Culture Collection. Recombinant human TNF and IL-1 with specific activities of 2 x 10⁷ units and 1 x 10⁸ units/mg protein, respectively, and of purities of ≧99% were purchased from Genzyme Corp. (Cambridge, MA, US). Phorbol 12-myristate 13-acetate, bradykinin, forskolin, dibutyryl-cyclic AMP (dBt-cAMP) and FGF were from Sigma, Okadaic acid was purchased from Biomol (Plymouth Meeting, PA, US). Radioactive [³²P]P was from Du Pont-New England Nuclear. […]
# Two-dimensional Gel Electrophoresis - The lyophilized fractions (each of approximately 12 µg) were subjected to isoelectric focusing for 18,000 V/h with pH 3-10 ampholytes using the Millipore Investigator two-dimensional electrophoresis system (Millipore). […] Molecular weight marker proteins from Sigma were detected by Coomassie Blue staining and marked on the autoradiogram. ³²P-Labeled 27 hsp complex prepared from human fibroblasts heat shocked at 43°C for 30 min was also used as a marker.
# [4] = tested on: Egr-1 protein; assay type: cell-based; settings: 2 h treatment, data not shown
# Description: (§3) Quiescent human fibroblasts were stimulated with MEM containing 0.5 µM okadaic acid in the presence or absence of cycloheximide (10 µg/ml) for the times indicated in Fig. 11. […] Treatment of cells with cycloheximide enhanced the induction of Egr-1 mRNA by okadaic acid at 1.5 and 3 h (Fig. 11). Similarly puromycin, like cycloheximide, also "superinduces" the induction of the Egr-1 mRNA by okadaic acid (data not shown). […] However, in view that protein phosphatase 1 (PP1) and protein phosphatase 2A (PP2A) regulate enzymes associated with cellular protein synthesis (Cohen, Annu. Rev. Biochem. 58, 453-508, 1989) the effect of okadaic acid on protein synthesis in mouse and human fibroblasts was also measured. […] By then the Egr-1 mRNA message was already induced. A corollary to this is a comparison of the amount of ³⁵S-methionine labelled Egr-1 protein immunoprecipitated by R5232 antibodies from protein phosphatase inhibitor-treated and control cells. […] Thus, the induction of the Egr-1 gene by phosphatase inhibitors is unlikely to be mediated by their late inhibitory effects on cellular protein synthesis.
# [5] = tested on: human fibroblasts; experiment: Total cellular protein synthesis in human fibroblasts; assay type: cell-based; settings: data not shown
# Description: as §3
compound,measurement,setting,value
C=C1[C@@H](O)[C@@H]2O[C@]3(CC[C@H](/C=C/[C@@H](C)[C@@H]4CC(C)=C[C@@]5(O[C@H](C[C@@](C)(O)C(=O)O)CC[C@H]5O)O4)O3)CC[C@H]2O[C@@H]1[C@@H](O)C[C@H](C)[C@H]1O[C@@]2(CCCCO2)CC[C@H]1C [okadaic acid],time to induction of c-jun,[1],≤ 60 min
same,time of induction of IL-6,[2],7 h
same,changes in early protein phosphorylation compared with TNF (in words),[3],almost identical changes
same,amount of 35S-methionine labeled Egr-1 protein relative to control cells,[4],4 to 5 fold
same,effect on total cellular protein synthesis (in words),"[5]; 0.5 µM, first 2 h",little measurable effect
same,inhibition at 0.5 µM,"[5]; Homo sapiens, Fibroblast, at 4 h",≤ 50%
